For test [1], the target named is T1, rat neurotensin receptor type 1 (rNTR-1) (Rattus norvegicus, UniProt P20789).
T1 construct: host or cells: HEK293 cells (membrane homogenates)
In words: Competition binding assay with [3H]-neurotensin on rat NTR-1 membranes (HEK293 cells). The conditions noted are these: read-out: NTR-1 binding affinity Ki, Rat NTR-1.

Test [2] deals with Swiss (CD-1) mice. The test is described as follows: Hypothermic response (rectal body temperature) after i.v. bolus in Swiss (CD-1) mice. It is filed as in vivo, mouse.
Test [3] concerns NMRI mice with yeast-induced hyperthermia. In words: Antipyretic effect in yeast-induced hyperthermia in NMRI mice. Type of test: in vivo, mouse. As for the experimental part:
In addition to eliciting a strong hypothermic effect when injected intravenously in naïve mice, we assessed the antipyretic effect of activated NT drugs of the invention in mice with yeast-induced hyperthermia. Briefly, rectal temperature of male NMRI mice was first measured 14 hours before the test using a rectal probe (Baseline 1, two independent measurements at a minimum of 5 min interval). Mice were then injected subcutaneously with either a yeast suspension (512 mg/kg), to induce a hyperthermic response, or hydroxypropylmethylcellulose (HPMC) in saline 0.9%. Fourteen hours later, rectal temperature of the mice was measured again (Baseline 2, two independent measurements at a minimum of 5 min interval) in order to assess the effect of yeast or HPMC injection on baseline temperature.

In test [4] the test system is FVB/N mice with KA-induced status epilepticus. In words: Kainic acid-induced status epilepticus model (body temperature, seizures, neurodegeneration, neuroinflammation, mossy fiber sprouting). Type of test: in vivo, mouse. The source says: In the present case, excitotoxicity was induced by subcutaneous (s.c.) injection of kainic acid (KA), a pro-convulsant agent known to induce a status epilepticus (SE) with excitotoxicity, neuroinflammation, and severe neuronal damage in the hippocampus that can be observed 3 to 7 days after KA administration, and with aberrant axonal sprouting of the dentate gyrus mossy fibers that can be observed at 7-8 weeks after KA administration. We tested the effect of compound XIV on i) epileptic activity (persistence of recurrent seizures), ii) neurodegeneration, neuroinflammation and the resulting brain tissue damage and iii) aberrant axonal sprouting of the dentate gyrus mossy fibers.
FVB/N adult male mice were injected with a single dose of KA (40-45 mg/kg s.c.) to generate mice with spontaneous recurrent seizures as a hallmark of SE. A negative control group of mice were administered saline 0.9% instead of KA and no further treatment (“SHAM”, n=5). Thirty minutes after the onset of SE, mice received either an intravenous (tail vein) bolus injection of compound XIV at the dose of 4 mg/kg eq. NT (treatment group “SE+HT”, n=5) or saline 0.9% (group “SE”, n=5), or a high dose of diazepam (DZP) at 15 mg/kg), a potent anti-convulsive and anti-epileptic drug (positive control group “SE+DZP”). Body temperature was monitored before KA injection and then every 15 min during 6 hours thereafter, using a rectal probe. During this period, mice were assessed for the occurrence and severity of motor seizures. One week later, animals were sacrificed for histological assessment of neuronal cell death on coronal sections, the hippocampal formation being the main structure in the brain showing tissue damage in this model of excitotoxicity. Another group of animals with the same treatments was sacrificed 8 weeks for histological assessment of aberrant axonal sprouting of the dentate gyrus mossy fibers.
Administration of KA (40-45 mg/kg; s.c.) caused characteristic sequential behavioral changes. Immediately after being injected, all animals developed immobility (stage 1). Within 30 minutes after KA injection, automatisms with head nodding, forelimb clonus and circling behavior (stages 2-3) were observed. Then most animals progressed to intermittent (stage 4) followed by continuous (stage 5) rearing with forelimb clonus and falling behavior. […] Only animals attaining at least Racine stage 5 seizures were included in the study. The SE occurred around 2 hours after KA injection, was characterized by stage 5-6 seizures and often associated with hyperthermia (FIG. 13A). Compound XIV administered 30 min after SE onset (SE30) invariably led to transient hypothermia (FIG. 13A), which persisted at least 2 hrs. Mean decreases in body temperature (BT) of −2.5° C. and −3.6° C. were respectively recorded for SE30+ compound XIV animals as compared to SE animals (F=52.34; ***P<0.001). […] SE30+ compound XIV animals presented an average of stage 2 seizures or fewer during the rest of experiment. A subset of animals was administered i.p. a high dose of diazepam (DZP). […] Thus, administration of compound XIV at the dose of 4 mg/kg eq. […] This effect correlated with a −3 to −6° C. decrease in body temperature during ˜2.5 hours.
Using the anti-NeuN antibody and Fluoro-jade C that respectively label a neuronspecific nuclear protein and neuronal death, we observed a broad loss of CA1 and CA3 pyramidal cells as well as some dentate hilar neurons in the hippocampus of control SE animals (FIG. 14A, panel B), as compared to SHAM animals (FIG. 14A, panel A).
SE-induced gliosis involved microglia and astroglial cell types. We used GFAP and Iba1 immunolabeling to estimate the effect of compound XIV on neuroinflammation. In SHAM animals, a basal labeling for GFAP and Iba1 was detected in the HF (FIG. 14A, panel D). In SE animals, a very strong activation of glial cells occurred in all hippocampal layers (FIG. 14, panels E, H). […]

Setting [5] is: administered 30 min after SE onset.

SMILES strings stand for the structures. A value given as a limit tells only on which side of the number the result lay.

T1 sequence (P20789 whole entry): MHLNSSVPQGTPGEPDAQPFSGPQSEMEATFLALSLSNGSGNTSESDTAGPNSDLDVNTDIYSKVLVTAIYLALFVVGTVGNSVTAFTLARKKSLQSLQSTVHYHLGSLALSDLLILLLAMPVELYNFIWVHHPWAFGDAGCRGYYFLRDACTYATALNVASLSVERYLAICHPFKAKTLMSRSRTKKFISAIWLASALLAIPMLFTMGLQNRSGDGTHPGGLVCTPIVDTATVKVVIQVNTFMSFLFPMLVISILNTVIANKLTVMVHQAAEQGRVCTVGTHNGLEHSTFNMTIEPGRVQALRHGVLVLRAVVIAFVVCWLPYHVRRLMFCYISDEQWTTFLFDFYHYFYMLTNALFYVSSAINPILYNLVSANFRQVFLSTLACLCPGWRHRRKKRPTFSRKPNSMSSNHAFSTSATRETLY

In the case of `CCC(=O)N[C@@H]1CSSC[C@@H](C(=O)NCCOCCOCCOCCOCCOCCOCCC(=O)N[C@@H](CCCNC(=N)N)C(=O)N[C@@H](CCCNC(=N)N)C(=O)N2CCC[C@H]2C(=O)N[C@@H](Cc2ccc(O)cc2)C(=O)N[C@H](C(=O)N[C@@H](CC(C)C)C(=O)O)[C@@H](C)CC)NC(=O)CN(C)C(=O)[C@H](CCCNC(=N)N)NC(=O)[C@H](CC(C)C)NC(=O)[C@H](CCCNC(=N)N)NC(=O)[C@@H]2CCCCN2C(=O)[C@H](CCSC)NC1=O` [Compound XIV, Pr-cMPipRLRSarC-PEG6-RRPYIL-OH], the Ki in test [1] is 1.06 ± 0.47 nM. In test [2] (10 mg/kg eq. NT i.v. bolus, 60 min post-injection), the “Maximal decrease in body temperature” value was −6.7 °C. Also, in test [2] (20 mg/kg eq. NT, mice), the “hypothermic response at 20 mg/kg eq. NT versus 10 mg/kg eq. NT” value is recorded as “No further decrease in body temperature”. In addition, the “Minimal Effective Dose (MED), hypothermic effect” value in test [2] (i.v. bolus) was “about 0.1 mg/kg eq. NT”. Besides, the “ED50, hypothermic effect” value in test [2] (i.v. bolus, dose-response) came to 1.53 mg/kg eq. NT. Besides, the “further decrease of body temperature” value in test [3] (6 mg/kg eq. NT i.v.) came out at 4.7 °C. Besides, in test [3] (as of 2 mg/kg eq. NT i.v., 15 min post-injection), the “maximal antipyretic effect compared to Baseline 2 or saline” value was −2.2 °C. In addition, in test [4] (4 mg/kg eq. NT i.v., during ~2.5 hours), the “decrease in body temperature” value was −3 to −6 °C. Also, the “mean decrease in body temperature compared to SE animals (second value)” value in test [4] (30 min after SE onset, second of two values, presumably 4 mg/kg eq. NT) is −3.6 °C. In addition, in test [4] (setting [5]), the “glial inflammatory response in the hippocampus (GFAP, Iba1) compared with SE animals” value is reported as “significantly decreased”; the “persistence of transient hypothermia” value is “at least 2 hrs”; the “seizure intensity compared with SE group” value is listed as “significant decrease of seizures”; the “seizure stage (Racine) during the rest of the experiment” value was no more than 2 stage. Besides, the “number of mossy fiber terminals innervating the IML (ZnT3) compared with SE animals” value in test [4] (administered 30 min after SE onset, 8 weeks after SE) is on record as “considerably reduced”. The “neurodegeneration in the hippocampus (NeuN, Fluoro-jade C) compared with SE animals” value in test [4] (administered 30 min after SE onset, one week later) was “significantly decreased”.
